From US5543147A, “Crystalline modification of 2,4-dioxo-6-methyl-1,2,3,4-tetrahydropyrimidine, a method for the preparation thereof and a medicinal preparation based on it” (Leonidov; Nikolai B., priority 1994, dated 1996)
Where two headings read alike, the source gives them in different places.

Experiments:
[1] = solubility of the crystalline powder; type: physicochemical
linear wounds = assay: wound-healing activity, model of linear wounds in rats (scar strength); type: in vivo, random-bred white male rats; settings: for Strength of the scar: wounds pricked once daily for 3 days; for Strength of the scar / Increase of the scar strength as compared with control: claimed 0.25% solution, known 1% solution in 0.9% aqueous NaCl
Experimental: (§1) The tests were carried out in 2 groups of 41 random-bred white male rats weighing 200±10 g. The experimental model in the 1st group were linear wounds of 50 mm long inflicted on the backs of the rats. Depending on the crystalline form of the tested compound used the rats were divided into 3 series. The first series was control--the wounds were pricked once daily with 0.9% aqueous solution of sodium chloride (0.5 ml) for 3 days. In the 2nd series the wounds were pricked by the same method with 1% solution of the known crystalline form of the said compound in 0.9% aqueous solution of sodium chloride. In the 3rd series the wounds were pricked by the same method with 0.25% solution of the claimed compound in 0.9% aqueous solution of sodium chloride.
(§2) The results of trials of the wound-healing activity of the claimed and the known crystalline forms of the said compound were statistically treated with the confidence limit of 95%.

plane multilayer wounds = assay: wound-healing activity, plane multilayer wounds in rats; type: in vivo, random-bred white male rats; settings: for Rate of healing at 7 days / Rate of healing at 10 days / Rate of healing at 15 days / Mean time of falling off of crusts / Mean time of healing / Speeding up of healing: claimed 0.25% solution, known 1% solution in 0.9% aqueous NaCl
Experimental: as §1
Plane multilayer wounds of 400 mm^2 in area inflicted on the backs of rats were an experimental model in the 2nd group of experiments. The animals were also divided into 3 series. Here, the pricking of the wound was done by the same schedule as in the 1st group. The parameters of the wound process in the time course at 7, 10 and 15 days after wound inflicting were assessed by the methods of tensiometry, planimetry and clinical observations. The time of falling off of crusts and complete healing of the wounds was determined. The rate of the wound area decrease (V) in the course of healing was calculated by the formula [formula] wherein So is the initial wound area, mm^2,
St the wound area on the day of measurement t, mm^2.
as §2

acute toxicity = type: in vivo, random-bred white mice, rats, and chinchilla rabbits
Experimental: (§3) Trials of the toxicity of the claimed crystalline modification of the said compound were carried out comparing it with the known crystalline form of the said compound.
(§4) Investigations of the general toxic effect of the claimed crystalline modification of 2,4-dioxo-6-methyl-1,2,3,4-tetrahydropyrimidine and the known crystalline form of the said compound were carried out in 3 […] species (random-bred white mice, rats, and chinchilla rabbits).

subacute toxicity = type: in vivo, random-bred white mice, rats, and chinchilla rabbits; settings: subacute routes of inoculation
Experimental: as §3, §4

eyes = assay: safety of long-term subconjunctival inoculations (2-month toxicological experiment); type: in vivo, white rats and chinchilla rabbits
Experimental: The study on the safety of long-term subconjunctival inoculations of the claimed modification in comparison with the known form of the said compound was carried out in a 2-month-long toxicological experiment in 148 mature male and female white rats and 49 male and female chinchilla rabbits.
Male rats and rabbits were given subconjunctivally I drop each of 2%, 25% and 50% suspension of the claimed modification of the said compound into each eye once daily. The results obtained were compared with those in a group of male rats and rabbits given one drop of 2% suspension of the known form of the said compound into the eye. Besides, a 2% suspension of the claimed modification of the said compound was given to a group of female rats and rabbits which were compared with the control group. In a separate series of experiments in the same animals (rats, rabbits) carried out by the same schedule of a chronic experiment, the effect of the claimed pharmaceutical in the form of an eye ointment containing as the active substance the claimed modification of the said compound was determined. The results of this study confirm the data obtained in the studies of the effect of the claimed compound. Comparisons with the pharmaceutical containing the known form of the said compound gave analogous results.

[2] = tested on: allergenic and immunotoxic properties; assay: studies of the allergenic and immunotoxic properties
[3] = rate of dissolution of the active substance (rotary basket); type: physicochemical; settings: water for injections 1000 ml, 37±1° C, 50 rpm, 0.25 g, 0 to 45 min
Experimental: The rate of dissolution of the active substance is determined in a "rotary basket" type DT-D6 apparatus (Erweka Co, BRD) at a mixing rate of 50 rpm. The dissolving medium is water for injections in a volume of 1000 ml at a temperature of 37±1° C. The content of the active substance in the solution is determined spectrophotometrically in a spectrophotometr No. 75 (Perkin-Elmer Co) at a wave length of 259 nm. For comparison, the known crystalline form of the said compound is used under identical conditions. The parameter for comparison is the constant of dissolution rate based on the mean results of the compound transition into solution from the amount thereof used (0.25 g) in the time of 0 to 45 min. The water for injections is used as a control.

wounds = assay: preliminary experiments on the wound-healing effect; type: in vivo
[4] = prior-art description, cited from earlier work

## Cc1cc(O)nc(O)n1 [claimed modification, 2,4-dioxo-6-methyl-1,2,3,4-tetrahydropyrimidine]
[1]; chloroform
  solubility in chloroform: practically insoluble
[1]; ethyl alcohol
  solubility in ethyl alcohol: poorly soluble
[1]; ethyl ether
  solubility in ethyl ether: practically insoluble
[1]; water
  solubility in water: poorly soluble
Linear wounds; 7 days
  increase of rupture strength of linear wounds as compared with the control: 90.4%
  Strength of the scar: 57.3 ± 9.0 g/mm^2
Linear wounds; 7 days, 0.25% vs 1% solution
  increase of rupture strength of linear wounds as compared with the known form of the compound: 43%
Linear wounds
  Increase of the scar strength as compared with control: 90.4
Plane multilayer wounds
  shortening of time of complete healing of plane wounds as compared with the control: 26.2%
  Rate of healing at 7 days: 61.6 ± 6.3%
  Rate of healing at 10 days: 89.0 ± 4.9%
  Rate of healing at 15 days: 95.4 ± 3.8%
  Mean time of falling off of crusts: 8.6 ± 0.7 days
  Mean time of healing: 17.7 ± 1.6 days
  Speeding up of healing: 26.2%
Plane multilayer wounds; 0.25% vs 1% solution
  shortening of time of complete healing of plane wounds as compared with the known form of the compound: 12%
Acute toxicity
  class of toxicity (acute toxicity): Vth class of toxicity (practically non-toxic compounds)
Acute toxicity; intraperitoneal
  class of toxicity (acute toxicity, intraperitoneal route): VI class of relatively harmless compounds
Acute toxicity; subconjunctival route
  mean lethal dose: could not be established
Subacute toxicity
  cumulative effect: weak
eyes; large doses
  microscopic changes in the eye: lymphoid infiltrates were formed in the ciliary body, iris, and sometimes in the initial parts of the optic nerve, but these changes were reversible
eyes; long-term administration
  macroscopic local inflammatory reactions of the eyes: no macroscopic local inflammatory reactions of the eyes
[2]
  formation of the tumor necrosis factor: not to be conducive to the formation of the tumor necrosis factor
  functional activity of the B-cell immunity: no effect on the functional activity of the B-cell immunity
  functional activity of the Te-cell immunity: not to inhibit the functional activity of the Te-cell immunity
  specific leukocyte lysis: no specific leukocyte lysis
  specific reaction of leukocyte agglomeration: no specific reaction of leukocyte agglomeration
[2]; overall
  allergenic and immunotoxic properties: no allergenic and immunotoxic properties
[3]
  constant of the dissolution rate K: 0.025 min⁻¹
wounds
  concentration of solution at which significant (comparable) wound-healing effect was manifested: 0.25 % by weight

## Cc1cc(O)nc(O)n1 [known form, 2,4-dioxo-6-methyl-1,2,3,4-tetrahydropyrimidine]
Linear wounds; 7 days
  Strength of the scar: 40.1 ± 5.0 g/mm^2
Linear wounds
  Increase of the scar strength as compared with control: 33.2
Plane multilayer wounds
  Rate of healing at 7 days: 57.5 ± 8.3%
  Rate of healing at 10 days: 80.2 ± 2.0%
  Rate of healing at 15 days: 90.2 ± 2.8%
  Mean time of falling off of crusts: 9.6 ± 0.5 days
  Mean time of healing: 18.4 ± 1.6 days
  Speeding up of healing: 23.3%
Acute toxicity
  class of toxicity (acute toxicity): slightly higher toxicity, although they belong to the same group
[3]
  constant of the dissolution rate K: 0.18 min⁻¹
wounds
  concentration of solution at which significant (comparable) wound-healing effect was manifested: 1 % by weight
[4]; chloroform
  solubility in chloroform: insoluble
[4]; ether
  solubility in ether: insoluble
[4]; ethyl alcohol
  solubility in ethyl alcohol: poorly soluble
[4]; water
  solubility in water: poorly soluble
